# Test results as given in patent publication US11505558B1, “Antiviral heterocyclic compounds” (Enanta Pharmaceuticals, Inc., priority 2019, dated 2022).
# Test system: genotype A, "Long" strain RSV
# Experiment: RSV-A assay (CPE, ATPlite readout in Hep-2 cells)
# Format: cell-based
# Conditions: human respiratory syncytial virus, HEp-2, Hep-2 cells, genotype A "Long" strain RSV, MOI 0.1; read-out: Human RSV-A (“Long” strain) EC50
# Procedure, shortened: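 Hep-2 cells (8,000/well) received 2-fold serial compound dilutions in duplicate and RSV Long strain at MOI 0.1. After 5 days' incubation, cell health was read as ATP by ATPlite luminescence, with virus-only and uninfected controls defining max and minimum CPE; EC50 reported.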
smiles,measurement,value
Cc1ccc2cc(C(=O)NC[C@](O)(c3cc4c(c(-c5ccc(F)cc5)n3)OC[C@]4(C)C(N)=O)C(F)(F)F)cc(N3CCCC3=O)c2n1 [Example 652],EC50,> 200 nM
COc1cc(C(=O)NC[C@](O)(c2cc3c(c(-c4ccc(F)cc4)n2)OC[C@]3(C)C(=O)NC2(C(F)(F)F)CC2)C(F)(F)F)cc2cccnc12 [Example 51],EC50,> 200 nM
COc1nccc2cc(C(=O)NC[C@](O)(c3cc4c(c(-c5ccc(F)cc5)n3)OC[C@]4(C)C(N)=O)C(F)(F)F)ccc12 [Example 362],EC50,> 200 nM
C[C@]1(C(N)=O)COc2c1cc([C@@](O)(CNC(=O)c1cc(C#N)c3ncccc3c1)C(F)(F)F)nc2-c1ccc(F)cc1 [Example 274],EC50,< 200 nM
Cc1cnc2c(NC(=O)C3(C)COC3)cc(C(=O)NC[C@](O)(c3cc4c(c(-c5ccc(F)cc5)n3)OC[C@]4(C)C(N)=O)C(F)(F)F)cc2c1 [Example 620],EC50,< 200 nM
C[C@]1(C(=O)NCCN)COc2c1cc([C@@](O)(CNC(=O)c1cc(OC3CC3)c3ncccc3c1)C(F)(F)F)nc2-c1ccc(F)cc1 [Example 463],EC50,> 200 nM
C[C@]1(C(N)=O)COc2c1cc([C@@](O)(CNC(=O)c1ccc(-c3cocn3)c(OC3CC3)c1)C(F)(F)F)nc2-c1ccc(F)cc1 [Example 198],EC50,< 200 nM
C[C@@H](O)COc1ccc(C(=O)NC[C@](O)(c2cc3c(c(-c4ccc(F)cc4)n2)OC[C@]3(C)C(N)=O)C(F)(F)F)cc1-c1cccnc1 [Example 204],EC50,> 200 nM
Cc1ncc(-c2ccc(C(=O)NC[C@](O)(c3cc4c(c(-c5ccc(F)cc5)n3)OC[C@]4(C)C(N)=O)C(F)(F)F)cc2OC2CC2)s1 [Example 176],EC50,> 200 nM
C[C@]1(C(N)=O)COc2c1cc([C@@](O)(CNC(=O)c1cc(C(N)=O)ccn1)C(F)(F)F)nc2-c1ccc(F)cc1 [Example 295],EC50,> 200 nM
C[C@]1(C(N)=O)COc2c1cc([C@@](O)(CNC(=O)c1cc(NC(=O)c3ncc[nH]3)c3ncccc3c1)C(F)(F)F)nc2-c1ccc(F)cc1 [Example 403],EC50,< 200 nM
COc1cc(C(=O)NC[C@](O)(c2cc3c(c(-c4ccc(F)cc4)n2)OC[C@]3(C)C(=O)NCC(C)(C)O)C(F)(F)F)cc2sc(N)nc12 [Example 502],EC50,< 200 nM
COc1cc(C(=O)NC[C@](O)(c2cc3c(c(-c4ccc(F)c(Cl)c4)n2)OC[C@]3(C)C(N)=O)C2CC2)cc2cc(C)cnc12 [Example 258],EC50,< 200 nM
C[C@]1(C(=O)NCC(N)=O)COc2c1cc([C@@](O)(CNC(=O)c1cc(OC3CC3)c3ncccc3c1)C(F)(F)F)nc2-c1ccc(F)cc1 [Example 476],EC50,< 200 nM
COc1cc(C(=O)NC[C@](O)(c2cc3c(c(-c4ccc(F)cc4)n2)OC[C@]3(C)CNCC2CC2)C(F)(F)F)ccc1OC1CC1 [Example 18],EC50,< 200 nM
COc1ncc(-c2cc(C(=O)NC[C@](O)(c3cc4c(c(-c5ccc(F)cc5)n3)OC[C@]4(C)C(N)=O)C(F)(F)F)ccc2OC2CC2)s1 [Example 130],EC50,> 200 nM
COc1cc(C(=O)NC[C@](O)(c2cc3c(c(-c4ccc(F)cc4)n2)OC[C@]3(C)C(=O)NCC2(C)CC2)C(F)(F)F)cc2cccnc12 [Example 76],EC50,< 200 nM
C[C@]1(C(N)=O)COc2c1cc([C@@](O)(CNC(=O)c1ccc(-c3ccncc3)c(OC3CC3)c1)C(F)(F)F)nc2-c1ccc(F)cc1 [Example 150],EC50,< 200 nM
COc1cc(C(=O)NC[C@](O)(c2cc3c(c(-c4ccc(F)cc4)n2)OC[C@]3(C)C(N)=O)C(F)(F)F)ccc1F [Example 316],EC50,> 200 nM
COc1cc(C(=O)NC[C@](O)(c2cc3c(c(-c4ccc(F)cc4)n2)OC[C@]3(C)COC(=O)Nc2ccccc2)C(F)(F)F)ccc1OCCO [Example 6],EC50,> 200 nM
C#Cc1nc([C@@](O)(CNC(=O)c2ccc(OC3CC3)c(OC)c2)C(F)(F)F)cc2c1OC[C@]2(C)C(N)=O [Example 509],EC50,> 200 nM
Cc1ccc(-c2ccc(C(=O)NC[C@](O)(c3cc4c(c(-c5ccc(F)cc5)n3)OC[C@]4(C)C(N)=O)C(F)(F)F)cc2OC2CC2)nc1 [Example 157],EC50,> 200 nM
C[C@]1(C(N)=O)COc2c1cc([C@@](O)(CNC(=O)c1ccc3ncncc3c1)C(F)(F)F)nc2-c1ccc(F)cc1 [Example 248],EC50,< 200 nM
C[C@]1(C(N)=O)COc2c1cc([C@@](O)(CNC(=O)c1ccc3c(c1)OC(F)(F)O3)C(F)(F)F)nc2-c1ccc(F)cc1 [Example 66],EC50,> 200 nM
CCOc1ccc2[nH]c(C(=O)NC[C@](O)(c3cc4c(c(-c5ccc(F)cc5)n3)OC[C@]4(C)C(N)=O)C(F)(F)F)cc2c1 [Example 297],EC50,> 200 nM
C[C@@H](O)COc1ccc(C(=O)NC[C@](O)(c2cc3c(c(-c4ccc(F)cc4)n2)OC[C@]3(F)C(N)=O)C(F)(F)F)cc1OC1CC1 [Example 674],EC50,> 200 nM
Cc1ccc(-c2cc(C(=O)NC[C@](O)(c3cc4c(c(-c5ccc(F)cc5)n3)OC[C@]4(C)C(N)=O)C(F)(F)F)ccc2OC2CC2)nc1 [Example 107],EC50,> 200 nM
CNC(=O)Nc1cc(C(=O)NC[C@](O)(c2cc3c(c(-c4ccc(F)cc4)n2)OC[C@]3(C)C(N)=O)C(F)(F)F)cc2cccnc12 [Example 409],EC50,< 200 nM
COc1cc(C(=O)NC[C@](O)(c2cc3c(c(-c4ccc(F)cc4)n2)OC[C@]3(C)C(N)=O)C(F)(F)F)ccc1-c1cnoc1C [Example 185],EC50,< 200 nM
C[C@]1(C(N)=O)COc2c1cc([C@@](O)(CNC(=O)c1ccc(F)c(C#N)c1)C(F)(F)F)nc2-c1ccc(F)cc1 [Example 324],EC50,> 200 nM
C[C@]1(C(N)=O)COc2c1cc([C@@](O)(CNC(=O)c1cc(OC(F)(F)C(N)=O)c3ncccc3c1)C(F)(F)F)nc2-c1ccc(F)cc1 [Example 365],EC50,< 200 nM
CCc1cnc2c(OCC(N)=O)cc(C(=O)NC[C@](O)(c3cc4c(c(-c5ccc(F)c(Cl)c5)n3)OC[C@]4(C)C(N)=O)C(F)(F)F)cc2c1 [Example 369],EC50,< 200 nM
COc1cc(C(=O)NC[C@](O)(c2cc3c(c(C#Cc4ccc(F)cc4)n2)OC[C@]3(C)C(N)=O)C(F)(F)F)ccc1OC1CC1 [Example 510],EC50,> 200 nM
C[C@]1(C(N)=O)COc2c1cc([C@@](O)(CNC(=O)c1ccc(OC3CC3)c(-c3ccnc(C(F)(F)F)c3)c1)C(F)(F)F)nc2-c1ccc(F)cc1 [Example 105],EC50,> 200 nM
Cc1cnc2c(NC(=O)NNCC(C)(C)O)cc(C(=O)NC[C@](O)(c3cc4c(c(-c5ccc(F)cc5)n3)OC[C@]4(C)C(N)=O)C(F)(F)F)cc2c1 [Example 632],EC50,< 200 nM
Cc1ncc(C(=O)Nc2cc(C(=O)NC[C@](O)(c3cc4c(c(-c5ccc(F)cc5)n3)OC[C@]4(C)C(N)=O)C(F)(F)F)cc3cccnc23)[nH]1 [Example 402],EC50,< 200 nM
COc1cc(C(=O)NC[C@](O)(c2cc3c(c(-c4ccc(F)cc4)n2)OC[C@]3(C)C(N)=O)C(F)(F)F)cc2c(C)ccnc12 [Example 251],EC50,> 200 nM
C[C@]1(C(N)=O)COc2c1cc([C@@](O)(CNC(=O)c1ccc3oc(=O)[nH]c3c1)C(F)(F)F)nc2-c1ccc(F)cc1 [Example 323],EC50,> 200 nM
COc1cc(C(=O)NC[C@](O)(C2=CC3C(OC[C@]3(C)C(N)=O)C(c3ccc(F)cc3)=N2)C(F)(F)F)ccc1Cl (stereo partly shown) [Example 329],EC50,< 200 nM
Cc1cncc(-c2ccc(C(=O)NC[C@](O)(c3cc4c(c(-c5ccc(F)cc5)n3)OC[C@]4(C)C(N)=O)C(F)(F)F)cc2OC2CC2)c1 [Example 142],EC50,> 200 nM
C[C@]1(C(N)=O)COc2c1cc([C@@](O)(CNC(=O)c1cc(OCC(F)F)c3ncccc3c1)C(F)(F)F)nc2-c1ccc(F)cc1 [Example 285],EC50,< 200 nM
CC(C)(O)CNC(=O)[C@@]1(C)COc2c1cc([C@@](O)(CNC(=O)c1ccc3nc(N)sc3c1)C(F)(F)F)nc2-c1ccc(F)c(Cl)c1 [Example 500],EC50,< 200 nM
C[C@]1(C(N)=O)COc2c1cc([C@@](O)(CNC(=O)c1ccc(-c3cccc(C(F)(F)F)n3)c(OC3CC3)c1)C(F)(F)F)nc2-c1ccc(F)cc1 [Example 162],EC50,> 200 nM
COc1cc(C(=O)NC[C@](O)(c2cc3c(c(-c4ccc(F)cc4)n2)OC[C@]3(C)C(N)=O)C(F)(F)F)ccc1-c1ncc(C)o1 [Example 182],EC50,< 200 nM
C[C@]1(C(N)=O)COc2c1cc([C@@](O)(CNC(=O)c1ccc(OC(F)F)c(OC(F)F)c1)C(F)(F)F)nc2-c1ccc(F)cc1 [Example 70],EC50,< 200 nM
C[C@]1(C(N)=O)COc2c1cc([C@@](O)(CNC(=O)c1cc(OCCO)c3ncccc3c1)C(F)(F)F)nc2-c1ccc(F)cc1 [Example 360],EC50,> 200 nM
C[C@]1(C(=O)NCCc2ccccc2)COc2c1cc([C@@](O)(CNC(=O)c1cc(OC3CC3)c3ncccc3c1)C(F)(F)F)nc2-c1ccc(F)cc1 [Example 486],EC50,> 200 nM
COc1cc(C(=O)NC[C@](O)(c2cc3c(c(-c4ccc(F)cc4)n2)OC[C@]3(C)C(=O)NCC(F)(F)F)C(F)(F)F)cc2cccnc12 [Example 48],EC50,< 200 nM
Cc1ccc2cc(C(=O)NC[C@](O)(c3cc4c(c(-c5ccc(F)c(Cl)c5)n3)OC[C@]4(C)C(N)=O)C(F)(F)F)cc(N3CCCC3=O)c2n1 [Example 653],EC50,> 200 nM
C[C@]1(C(N)=O)COc2c1cc([C@@](O)(CNC(=O)c1cc3c(F)cc(Cl)cc3[nH]1)C(F)(F)F)nc2-c1ccc(F)cc1 [Example 597],EC50,< 200 nM
C[C@]1(C(N)=O)COc2c1cc([C@@](O)(CNC(=O)c1ccc(OC3CC3)c(-c3ccc(=O)[nH]c3)c1)C(F)(F)F)nc2-c1ccc(F)cc1 [Example 132],EC50,> 200 nM
Cc1noc(C)c1-c1cc(C(=O)NC[C@](O)(c2cc3c(c(-c4ccc(F)cc4)n2)OC[C@]3(C)C(N)=O)C(F)(F)F)ccc1OC1CC1 [Example 121],EC50,> 200 nM
COc1cc(C(=O)NC[C@](O)(c2cc3c(c(-c4ccc(F)cc4)n2)OC[C@]3(C)C(N)=O)C(F)(F)F)cc2cn(C)nc12 [Example 427],EC50,< 200 nM
C[C@](F)(CNC(=O)c1cc(OC2CC2)c2ncccc2c1)c1cc2c(c(-c3ccc(F)cc3)n1)OC[C@]2(C)C(N)=O [Example 545],EC50,> 200 nM
Cc1cnc2c(O)cc(C(=O)NC[C@](O)(c3cc4c(c(-c5ccc(F)c(Cl)c5)n3)OC[C@]4(C)C(N)=O)C(F)(F)F)cc2c1 [Example 253],EC50,< 200 nM
